# Laboratory results: PubChem BioAssay AID1963973 (Molecular Pharmacology Branch, DTP, NCI, 2024)
# Test system: 883617-216-R-J1-PDC tumor spheroids, viability
# Assay: Anticancer human tumor 883617-216-R-J1-PDC patient-derived bladder carcinoma cell line growth inhibition [PI3K]
# Settings: spheroids with HUVEC and MSC; for IC50: curve of first compound; for viability, T/C: stronger effect = lower value
# Summary of the method: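 Spheroid viability read-out. Co-cultures contained the tumor line plus HUVEC and human MSCs. Each agent was paired with a PI3K inhibitor (inavolisib, alpelisib, duvelisib, copanlisib) across half-log dilutions starting at clinical Cmax, or at 10 microM when Cmax was unknown.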
# 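Also: spheroids exposed to agents for 7 days before the viability read.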
compound,measurement,setting,value
CNC(=O)c1ccc(N2C(=S)N(c3ccc(C#N)c(C(F)(F)F)c3)C(=O)C2(C)C)cc1F + CC(Nc1ncnc2nc[nH]c12)c1cc2cccc(Cl)c2c(=O)n1-c1ccccc1,IC50,second compound 0.0316 µM,> 10000 nM
same,IC50,second compound 0.1 µM,> 10000 nM
same,IC50,second compound 0.316 µM,> 10000 nM
same,IC50,second compound 1 µM,> 10000 nM
same,IC50,second compound 3.16 µM,> 10000 nM
same,IC50,second compound 10 µM,3250 nM
same,"viability, T/C","second compound 0.0316 µM, first compound 0.0316 µM",91.8%
same,"viability, T/C","second compound 0.0316 µM, first compound 0.1 µM",94.3%
same,"viability, T/C","second compound 0.0316 µM, first compound 0.316 µM",92.8%
same,"viability, T/C","second compound 0.0316 µM, first compound 1 µM",96.2%
same,"viability, T/C","second compound 0.0316 µM, first compound 3.16 µM",83.9%
same,"viability, T/C","second compound 0.0316 µM, first compound 10 µM",89%
same,"viability, T/C","second compound 0.1 µM, first compound 0.0316 µM",89.4%
same,"viability, T/C","second compound 0.1 µM, first compound 0.1 µM",93.2%
same,"viability, T/C","second compound 0.1 µM, first compound 0.316 µM",90.2%
same,"viability, T/C","second compound 0.1 µM, first compound 1 µM",103%
same,"viability, T/C","second compound 0.1 µM, first compound 3.16 µM",89.8%
same,"viability, T/C","second compound 0.1 µM, first compound 10 µM",67%
same,"viability, T/C","second compound 0.316 µM, first compound 0.0316 µM",88.1%
same,"viability, T/C","second compound 0.316 µM, first compound 0.1 µM",98.9%
same,"viability, T/C","second compound 0.316 µM, first compound 0.316 µM",84.9%
same,"viability, T/C","second compound 0.316 µM, first compound 1 µM",88.6%
same,"viability, T/C","second compound 0.316 µM, first compound 3.16 µM",82.7%
same,"viability, T/C","second compound 0.316 µM, first compound 10 µM",70.2%
same,"viability, T/C","second compound 1 µM, first compound 0.0316 µM",84.5%
same,"viability, T/C","second compound 1 µM, first compound 0.1 µM",90.8%
same,"viability, T/C","second compound 1 µM, first compound 0.316 µM",83%
same,"viability, T/C","second compound 1 µM, first compound 1 µM",89.8%
same,"viability, T/C","second compound 1 µM, first compound 3.16 µM",73.3%
same,"viability, T/C","second compound 1 µM, first compound 10 µM",79.7%
same,"viability, T/C","second compound 3.16 µM, first compound 0.0316 µM",70.6%
same,"viability, T/C","second compound 3.16 µM, first compound 0.1 µM",78.5%
same,"viability, T/C","second compound 3.16 µM, first compound 0.316 µM",72.7%
same,"viability, T/C","second compound 3.16 µM, first compound 1 µM",76.4%
same,"viability, T/C","second compound 3.16 µM, first compound 3.16 µM",69.2%
same,"viability, T/C","second compound 3.16 µM, first compound 10 µM",55.6%
same,"viability, T/C","second compound 10 µM, first compound 0.0316 µM",50.8%
same,"viability, T/C","second compound 10 µM, first compound 0.1 µM",53.1%
same,"viability, T/C","second compound 10 µM, first compound 0.316 µM",50.5%
same,"viability, T/C","second compound 10 µM, first compound 1 µM",47.4%
same,"viability, T/C","second compound 10 µM, first compound 3.16 µM",50.6%
same,"viability, T/C","second compound 10 µM, first compound 10 µM",38.9%
Cn1cnc2c(F)c(Nc3ccc(Br)cc3Cl)c(C(=O)NOCCO)cc21 + CC(Nc1ncnc2nc[nH]c12)c1cc2cccc(Cl)c2c(=O)n1-c1ccccc1,IC50,second compound 0.0316 µM,43.1 nM
same,IC50,second compound 0.1 µM,39.3 nM
same,IC50,second compound 0.316 µM,32.7 nM
same,IC50,second compound 1 µM,22.7 nM
same,IC50,second compound 3.16 µM,9.6 nM
same,IC50,second compound 10 µM,< 9.49 nM
same,"viability, T/C","second compound 0.0316 µM, first compound 0.00949 µM",64.3%
same,"viability, T/C","second compound 0.0316 µM, first compound 0.03 µM",56.1%
same,"viability, T/C","second compound 0.0316 µM, first compound 0.0949 µM",39.5%
same,"viability, T/C","second compound 0.0316 µM, first compound 0.3 µM",33.4%
same,"viability, T/C","second compound 0.0316 µM, first compound 0.949 µM",33.5%
same,"viability, T/C","second compound 0.0316 µM, first compound 3 µM",19.9%
same,"viability, T/C","second compound 0.1 µM, first compound 0.00949 µM",66.4%
same,"viability, T/C","second compound 0.1 µM, first compound 0.03 µM",55%
same,"viability, T/C","second compound 0.1 µM, first compound 0.0949 µM",35.6%
same,"viability, T/C","second compound 0.1 µM, first compound 0.3 µM",28.8%
same,"viability, T/C","second compound 0.1 µM, first compound 0.949 µM",30%
same,"viability, T/C","second compound 0.1 µM, first compound 3 µM",19.7%
same,"viability, T/C","second compound 0.316 µM, first compound 0.00949 µM",68.8%
same,"viability, T/C","second compound 0.316 µM, first compound 0.03 µM",51%
same,"viability, T/C","second compound 0.316 µM, first compound 0.0949 µM",37.8%
same,"viability, T/C","second compound 0.316 µM, first compound 0.3 µM",28.4%
same,"viability, T/C","second compound 0.316 µM, first compound 0.949 µM",23.9%
same,"viability, T/C","second compound 0.316 µM, first compound 3 µM",19.6%
same,"viability, T/C","second compound 1 µM, first compound 0.00949 µM",60%
same,"viability, T/C","second compound 1 µM, first compound 0.03 µM",44.9%
same,"viability, T/C","second compound 1 µM, first compound 0.0949 µM",39.4%
same,"viability, T/C","second compound 1 µM, first compound 0.3 µM",28%
same,"viability, T/C","second compound 1 µM, first compound 0.949 µM",22.4%
same,"viability, T/C","second compound 1 µM, first compound 3 µM",19%
same,"viability, T/C","second compound 3.16 µM, first compound 0.00949 µM",50.3%
same,"viability, T/C","second compound 3.16 µM, first compound 0.03 µM",37%
same,"viability, T/C","second compound 3.16 µM, first compound 0.0949 µM",23.2%
same,"viability, T/C","second compound 3.16 µM, first compound 0.3 µM",20.6%
same,"viability, T/C","second compound 3.16 µM, first compound 0.949 µM",19%
same,"viability, T/C","second compound 3.16 µM, first compound 3 µM",11%
same,"viability, T/C","second compound 10 µM, first compound 0.00949 µM",31.2%
same,"viability, T/C","second compound 10 µM, first compound 0.03 µM",24.7%
same,"viability, T/C","second compound 10 µM, first compound 0.0949 µM",17.8%
same,"viability, T/C","second compound 10 µM, first compound 0.3 µM",13.3%
same,"viability, T/C","second compound 10 µM, first compound 0.949 µM",12.4%
same,"viability, T/C","second compound 10 µM, first compound 3 µM",8.11%
